Read-outs that look alike come from different tables or passages of the source. Values belong to the compound of their own block, whether it stands above or below them.
Target: T1, Recombinant human GSK3β (Homo sapiens, UniProt P49841)
T1 construct: His-tag; made in house; host or cells: Sf9 insect cells / baculovirus
Assay: GSK-3β (Glycogen Synthase Kinase) cell free enzyme assay
Type: biochemical
Settings: for inhibition at 1 µM: read-out: Percent inhibition at 1 μM; for IC50: cell free enzyme assay
Protocol: Assay Protocol for GSK-3β (Glycogen Synthase Kinase) in a Cell Free Enzyme Assay
Recombinant human GSK3β was expressed in SF9/Baculo virus cells. His-tag protein was purified by affinity chromatography to a Ni-NTA Superflow column. Enzyme activity was assayed as the incorporation of [33P] from the gamma phosphate of [33P]ATP (PerkinElmer) into biotinylated peptide substrate bio-LC-S-R-H-S-S-P-H-Q-pS-E-D-E-E-E-OH (Anaspec). Reactions were carried out in a buffer containing 8 mM MOPS (pH 7.0), 10 mM Magnesium Acetate, 0.2 mM EDTA, 1 mM DTT and 2 uM cold ATP. The 33P-ATP was added for 0.025 uCi/well (120 uL) and the final concentration of substrate was 1.0 uM. Enzyme was preincubated with test agent for 30 minutes at room temperature followed by initiation of the reaction by the addition of substrate mix. Incubations were carried out at RT for 60 min. Reactions were stopped by addition of 0.66 volume of buffer containing: 12.5 mM EDTA, 0.25% Triton-X 100, 125 uM ATP, and 6.2 mg/ml streptavidin coated SPA beads (Amersham) in PBS without Ca or Mg. Radioactivity associated with the beads was quantified by scintillation counting of CPM in a Trilux counter (PerkinElmer).
Examples 42 to 60 were prepared using the analogous procedure described to prepare Example 41, substituting the appropriate starting material (Examples 1 to 35) and coupling with the appropriate acid. The assay protocol used is the percent inhibition at 1 μM for GSK-3β in the cell free enzyme assay described above.

[1] = 1 μM, GSK-3β cell free enzyme assay, Examples 42-60

T1 sequence (P49841 whole entry): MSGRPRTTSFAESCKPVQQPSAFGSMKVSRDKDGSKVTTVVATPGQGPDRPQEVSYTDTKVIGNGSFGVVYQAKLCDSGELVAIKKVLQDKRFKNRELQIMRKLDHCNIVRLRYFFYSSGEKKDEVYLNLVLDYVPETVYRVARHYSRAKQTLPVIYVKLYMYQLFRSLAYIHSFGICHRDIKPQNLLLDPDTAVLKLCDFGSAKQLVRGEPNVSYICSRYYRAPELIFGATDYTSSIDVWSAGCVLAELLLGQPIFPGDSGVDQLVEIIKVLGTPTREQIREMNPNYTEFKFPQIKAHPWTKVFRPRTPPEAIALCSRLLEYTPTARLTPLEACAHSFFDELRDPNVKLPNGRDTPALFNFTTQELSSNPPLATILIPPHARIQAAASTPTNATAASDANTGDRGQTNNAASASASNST

Compound: Cc1ccc(C(=O)N2C[C@@H]3[C@H](C2)[C@H]3N(C)c2nc(-c3ccncc3F)cc(=O)n2C)cc1 [Example 142, 6-(3-Fluoropyridin-4-yl)-3-methyl-2-{methyl[(1R,5S,6s)-3-(4-methylbenzoyl)-3-azabicyclo[3.1.0]hex-6-yl]amino}pyrimidin-4(3H)-one]
- IC50 (Examples 62-155): 3.51 nM

Compound: CN(c1nc(-c2ccncc2)cc(=O)n1C)C1CCCN(S(C)(=O)=O)CC1 (stereo not shown) [Example 159, 3-Methyl-2-{methyl[1-(methylsulfonyl)azepan-4-yl]amino}-6-pyridin-4-ylpyrimidin-4(3H)-one]
- inhibition at 1 µM (1 μM, Examples 157-199): 100%

Compound: CCN(c1nc(-c2ccncc2)cc(=O)n1C)C1CCCN(C(=O)OC(C)(C)C)CC1 (stereo not shown) [Example 15, tert-butyl 4-[Ethyl(1-methyl-6-oxo-4-pyridin-4-yl-1,6-dihydropyrimidin-2-yl)amino]azepane-1-carboxylate]
- IC50 (Examples 1-35): 31 nM

Compound: Cc1nnc2c(N3C[C@@H]4[C@H](C3)[C@H]4N(C)c3nc(-c4ccncc4F)cc(=O)n3C)nc(-c3ccccc3)cn12 [Example 274, 6-(3-Fluoropyridin-4-yl)-3-methyl-2-{methyl[(1R,5S,6s)-3-(3-methyl-6-phenyl[1,2,4]triazolo[4,3-a]pyrazin-8-yl)-3-azabicyclo[3.1.0]hex-6-yl]amino}pyrimidin-4(3H)-one]
- IC50 (Examples 265-291): 234 nM

Compound: CCN(c1nc(-c2ccncc2)cc(=O)n1C)C1CCCN(S(C)(=O)=O)C1 (stereo not shown) [Example 164, 2-{Ethyl[1-(methylsulfonyl)piperidin-3-yl]amino)-3-methyl-6-pyridin-4-ylpyrimidin-4(3H)-one]
- inhibition at 1 µM (1 μM, Examples 157-199): 82%

Compound: CCOCCn1nnnc1N1C[C@@H]2[C@H](C1)[C@H]2N(C)c1nc(-c2ccncc2F)cc(=O)n1C [Example 273, 2-[{(1R,5S,6s)-3-[1-(2-Ethoxyethyl)-1H-tetrazol-5-yl]-3-azabicyclo[3.1.0]hex-6-yl}(methyl)amino]-6-(3-fluoropyridin-4-yl)-3-methylpyrimidin-4(3H)-one]
- IC50 (Examples 265-291): 29 nM

Compound: CC(=O)N[C@@H]1CC[C@@H](Nc2nc(-c3ccncc3)cc(=O)n2C)C1 [Example 60, N-{(1R,3R)-3-[(1-Methyl-6-oxo-4-pyridin-4-yl-16-dihydropyrimidin-2-yl)amino]cyclopentyl} acetamide]
- inhibition at 1 µM [1]: 77%

Compound: CC(C)n1nnnc1N1C[C@@H]2[C@H](C1)[C@H]2N(C)c1nc(-c2ccncc2F)cc(=O)n1C [Example 282, 6-(3-Fluoropyridin-4-yl)-2-{[(1R,5S,6s)-3-(1-isopropyl-1H-tetrazol-5-yl)-3-azabicyclo[3.1.0]hex-6-yl](methyl)amino}-3-methylpyrimidin-4(3H)-one]
- IC50 (Examples 265-291): 3.25 nM

Compound: Cn1c(N[C@@H]2CC[C@@H](NC(=O)OC(C)(C)C)C2)nc(-c2ccncc2)cc1=O [Example 21, tert-butyl {(1R,3R)-3-[(1-Methyl-6-oxo-4-pyridin-4-yl-1,6-dihydropyrimidin-2-yl)amino]cyclopentyl} carbamate]
- IC50 (Examples 1-35): 52.5 nM

Compound: CN(c1nc(-c2ccncc2F)cc(=O)n1C)[C@H]1[C@@H]2CN(c3nc4cc(F)ccc4[nH]3)C[C@@H]21 [Example 288, 2-{[(1R,5S,6s)-3-(5-Fluoro-1H-benzimidazol-2-yl)-3-azabicyclo[3.1.0]hex-6-yl](methyl)amino}-6-(3-fluoropyridin-4-yl)-3-methylpyrimidin-4(3H)-one]
- IC50 (Examples 265-291): 116 nM

Compound: Cn1c(N[C@@H]2CN(C(=O)OC(C)(C)C)C[C@@H]2F)nc(-c2ccncc2)cc1=O [Example 33, tert-butyl (3S,4R)-3-Fluoro-4-[(1-methyl-6-oxo-4-pyridin-4-yl-1,6-dihydropyrimidin-2-yl)amino]pyrrolidine-1-carboxylate]
- IC50 (Examples 1-35): 77 nM

Compound: CN(c1nc(-c2ccncc2F)cc(=O)n1C)[C@H]1[C@@H]2CN(c3nnnn3Cc3ccc(C#N)cc3)C[C@@H]21 [Example 271, 4-({5-[(1R,5S,6s)-6-{[4-(3-Fluoropyridin-4-yl)-1-methyl-6-oxo-1,6-dihydropyrimidin-2-yl](methyl)amino}-3-azabicyclo[3.1.0]hex-3-yl]-1H-tetrazol-1-yl}methyl)benzonitrile]
- IC50 (Examples 265-291): 8.8 nM

Compound: CN(c1nc(-c2ccncc2F)cc(=O)n1C)[C@H]1[C@@H]2CN(C(=O)c3cc(F)cc(F)c3)C[C@@H]21 [Example 144, 2-{[(1R,5S,6s)-3-(3,5-Difluorobenzoyl)-3-azabicyclo[3.1.0]hex-6-yl](methyl)amino}-6-(3-fluoropyridin-4-yl)-3-methylpyrimidin-4(3H)-one]
- IC50 (Examples 62-155): 4.09 nM

Compound: CCOC(=O)N1CCC[C@@H](N(C)c2nc(-c3ccncc3)cc(=O)n2C)C1 [Example 231, Ethyl (3R)-3-[methyl(1-methyl-6-oxo-4-pyridin-4-yl-1,6-dihydropyrimidin-2-yl)amino]piperidine-1-carboxylate]
- IC50 (Examples 222-234): 1.15 nM

Compound: Cn1c(N2CCN(C(=O)OC(C)(C)C)[C@@H]3CCCC[C@H]32)nc(-c2ccncc2)cc1=O [Example 25, tert-butyl (4aR,8aR)-4-(1-Methyl-6-oxo-4-pyridin-4-yl-1,6-dihydropyrimidin-2-yl)octahydroquinox-aline-1(2H)-carboxylate]
- IC50 (Examples 1-35): 40 nM

Compound: CN(c1nc(-c2ccncc2)cc(=O)n1C)[C@H]1CC[C@H]2NCC[C@@]2(C)C1 [Example 23, 3-methyl-2-{Methyl[(3aS,5S,7aR)-3a-methyloctahydro-1H-indol-5-yl]amino}-6-pyridin-4-ylpyrimidin-4(3H)-one]
- IC50 (Examples 1-35): 47 nM

Compound: CN(c1nc(-c2ccncc2F)cc(=O)n1C)[C@H]1[C@@H]2CN(C(=O)CC(F)(F)F)C[C@@H]21 [Example 97, 6-(3-Fluoropyridin-4-yl)-3-methyl-2-{methyl[(1R,5S,6s)-3-(3,3,3-trifluoropropanoyl)-3-azabicyclo[3.1.0]hex-6-yl]amino}pyrimidin-4(3H)-one]
- IC50 (Examples 62-155): 55.4 nM

Compound: COC(=O)N1CCCC(N(C)c2nc(-c3ccncn3)cc(=O)n2C)C1 (stereo not shown) [Example 223, Methyl 3-[methyl(1-methyl-6-oxo-1,6-dihydro-4,4′-bipyrimidin-2-yl)amino]piperidine-1-carboxylate]
- IC50 (Examples 222-234): 1.04 nM

The remaining lines, values ahead:

- inhibition at 1 µM (1 μM, Examples 157-199): 93%
Compound: CN(c1nc(-c2ccncc2)cc(=O)n1C)C1CCN(S(=O)(=O)c2ccccc2)C1 (stereo not shown) [Example 180, 3-Methyl-2-{methyl[1-(phenylsulfonyl)pyrrolidin-3-yl]amino}-6-pyridin-4-ylpyrimidin-4(3H)-one]

- inhibition at 1 µM (1 μM, Examples 201-221): 68%
Compound: COC(=O)N1CCC[C@H]1CNc1nc(-c2ccncc2)cc(=O)n1C [Example 218, Methyl (2S)-2-{[(1-methyl-6-oxo-4-pyridin-4-yl-16-dihydropyrimidin-2-yl)amino]methyl}pyrrolidine-1-carboxylate]

- IC50 (Examples 62-155): 39 nM
Compound: Cn1c(N[C@H]2CN(C(=O)Cc3ccccc3)C[C@@H]2F)nc(-c2ccncc2)cc1=O [Example 83, 2-{[(3S,4S)-4-Fluoro-1-(phenylacetyl)pyrrolidin-3-yl]amino}-3-methyl-6-pyridin-4-ylpyrimidin-4(3H)-one]

- inhibition at 1 µM [1]: 64%
Compound: CC(=O)N1CCC[C@@H]1CNc1nc(-c2ccncc2)cc(=O)n1C [Example 58, 2-({[(2R)-1-Acetylpyrrolidin-2-yl]methyl}amino)-3-methyl-6-pyridin-4-ylpyrimidin-4(3H)-one]

- IC50 (Examples 62-155): 878 nM
Compound: Cn1c(NC[C@@H]2CCCN2C(=O)Cc2ccccc2)nc(-c2ccncc2)cc1=O [Example 93, 3-Methyl-2-({[(2S)-1-(phenylacetyl)pyrrolidin-2-yl]methyl}amino)-6-pyridin-4-ylpyrimidin-4(3H)-one]

- IC50 (Examples 62-155): 133 nM
Compound: CN(c1nc(-c2ccncc2)cc(=O)n1C)C1CCN(C(=O)Cc2ccccc2)C1 (stereo not shown) [Example 90, 3-Methyl-2-{methyl[1-(phenylacetyl)pyrrolidin-3-yl]amino}-6-pyridin-4-ylpyrimidin-4(3H)-one]

- IC50 (Examples 1-35): 42 nM
Compound: Cn1c(NC2CCCN(C(=O)OC(C)(C)C)C2)nc(-c2ccncc2)cc1=O (stereo not shown) [Example 19, tert-butyl 3-[(1-Methyl-6-oxo-4-pyridin-4-yl-1,6-dihydropyrimidin-2-yl)amino]piperidine-1-carboxylate]

- inhibition at 1 µM (1 μM, Examples 157-199): 97%
Compound: Cn1c(N[C@H]2[C@@H]3CN(S(=O)(=O)c4ccccc4)C[C@@H]32)nc(-c2ccncc2)cc1=O [Example 177, 3-Methyl-2-{[(1R,5S,6s)-3-(phenylsulfonyl)-3-azabicyclo[3.1.0]hex-6-yl]amino}-6-pyridin-4-ylpyrimidin-4(3H)-one]

- IC50 (Examples 62-155): 61.5 nM
Compound: CN(c1nc(-c2ccncc2)cc(=O)n1C)C1CCCN(C(=O)c2ccccc2)CC1 (stereo not shown) [Example 72, 2-[(1-Benzoylazepan-4-yl)(methyl)amino]-3-methyl-6-pyridin-4-ylpyrimidin-4(3H)-one]

- Percent inhibition at 1 μM (1 μM, Examples 157-199): 96%
Compound: CN(c1nc(-c2ccncc2)cc(=O)n1C)C1CCCN(S(=O)(=O)c2ccccc2)CC1 (stereo not shown) [Example 182, 3-Methyl-2-{methyl[1-(phenylsulfonyl)azepan-4-yl]amino}-6-pyridin-4-ylpyrimidin-4(3H)-one]

— patent US20100292205A1, “Pyrimidone Compounds As GSK-3 Inhibitors” (PFIZER INC., priority 2006, published 2010)
